According to the NIST ThermoML archive (doi:10.1021/acs.jced.8b00157):
“And” between values parts separate entries of the source, which are not always exact repeats. Equal values may be shown once.

Assay: an = ratio of the nth substance listed
Conditions: 100 kPa, Liquid, Buoyancy - hydrostatic balance, a2 = 1.3

[F][Al]([F])[F] [aluminum fluoride] + [F-].[K+]
Conditions	mass density
991.02 K	1842 kg/m3
991.03 K	1841 kg/m3
991.17 K	1842 kg/m3
991.49 K	1841 kg/m3
992.13 K	1841 kg/m3
992.28 K	1840 kg/m3
992.47 K	1841 kg/m3
992.66 K	1842 kg/m3
992.84 K	1842 kg/m3
993.1 K	1842 kg/m3
993.15 K	1840 kg/m3
993.49 K	1839 kg/m3
993.5 K	1840 kg/m3
993.57 K	1841 kg/m3
993.62 K	1840 kg/m3
993.79 K	1839 kg/m3
993.81 K	1841 kg/m3
993.83 K	1841 kg/m3
994.35 K	1838 kg/m3
994.37 K	1839 kg/m3
994.52 K	1838 kg/m3
994.62 K	1840 kg/m3
995.21 K	1838 kg/m3
995.25 K	1840 kg/m3
995.47 K	1840 kg/m3
995.64 K	1840 kg/m3
995.66 K	1838 kg/m3
996.05 K	1838 kg/m3
996.18 K	1839 kg/m3
996.21 K	1838 kg/m3
996.6 K	1839 kg/m3
996.7 K	1837 kg/m3
996.81 K	1836 kg/m3
996.88 K	1839 kg/m3
997.13 K	1836 kg/m3
997.4 K	1836 kg/m3
997.41 K	1838 kg/m3
997.63 K	1838 kg/m3
997.84 K	1837 kg/m3
997.92 K	1836 kg/m3
997.99 K	1836 kg/m3
998.24 K	1835 kg/m3
998.66 K	1837 kg/m3
998.67 K	1837 kg/m3
998.83 K	1835 kg/m3
999.09 K	1836 kg/m3
999.14 K	1836 kg/m3
999.24 K	1836 kg/m3
999.27 K	1835 kg/m3
999.3 K	1837 kg/m3
999.38 K	1837 kg/m3
999.39 K	1835 kg/m3
999.51 K	1836 kg/m3
999.7 K	1834 kg/m3
1000.2 K	1834 kg/m3
1000.5 K	1835 kg/m3
1000.8 K	1833 kg/m3
1000.9 K	1834 kg/m3
1001.1 K	1835 kg/m3
1001.3 K	1834 kg/m3
1001.4 K	1833 kg/m3
1001.5 K	1834 kg/m3
1001.6 K	1833 kg/m3
1001.7 K	1834 kg/m3
1002.2 K	1832 kg/m3 and 1833 kg/m3
1002.4 K	1833 kg/m3
1002.7 K	1833 kg/m3
1002.9 K	1832 kg/m3 and 1832 kg/m3
1003.4 K	1832 kg/m3 and 1832 kg/m3
1003.5 K	1831 kg/m3
1003.7 K	1832 kg/m3
1004.2 K	1831 kg/m3
1004.3 K	1831 kg/m3 and 1830 kg/m3
1004.8 K	1831 kg/m3 and 1830 kg/m3
1005 K	1831 kg/m3
1005.1 K	1831 kg/m3 and 1830 kg/m3
1005.6 K	1830 kg/m3
1005.7 K	1830 kg/m3
1006 K	1829 kg/m3
1006.3 K	1830 kg/m3
1006.4 K	1830 kg/m3
1006.5 K	1830 kg/m3 and 1829 kg/m3
1006.9 K	1829 kg/m3 and 1827 kg/m3
1007 K	1829 kg/m3
1007.1 K	1828 kg/m3
1007.3 K	1828 kg/m3
1007.4 K	1828 kg/m3 and 1829 kg/m3
1007.7 K	1827 kg/m3
1007.9 K	1827 kg/m3
1008 K	1827 kg/m3
1008.2 K	1827 kg/m3
1008.3 K	1828 kg/m3
1008.5 K	1827 kg/m3
1008.8 K	1827 kg/m3
1009 K	1827 kg/m3
1009.2 K	1827 kg/m3
1009.4 K	1827 kg/m3
1009.6 K	1826 kg/m3
1009.8 K	1826 kg/m3
1010 K	1825 kg/m3
1010.1 K	1825 kg/m3
1010.3 K	1825 kg/m3
1010.7 K	1825 kg/m3
1010.9 K	1825 kg/m3
1011 K	1825 kg/m3
1011.1 K	1825 kg/m3
1011.2 K	1825 kg/m3
1011.3 K	1824 kg/m3
1011.6 K	1823 kg/m3
1011.7 K	1824 kg/m3
1012 K	1824 kg/m3
1012.2 K	1824 kg/m3
1012.4 K	1824 kg/m3
1012.5 K	1824 kg/m3
1012.6 K	1823 kg/m3
1012.9 K	1824 kg/m3
1013.1 K	1822 kg/m3
1013.4 K	1823 kg/m3
